From US20110039770A1, “INHIBITORS OF PROTEIN KINASE C ISOFORMS AND USES THEREOF” (PHARMAGAP INC., priority 2005, published 2011)
Where a SMILES comes first, the peptide text is derived from it.

Legend:
PKC-α [1] = target: T1, PKC-α (Homo sapiens, UniProt P17252); assay: ELISA-based competitive binding assay with purified PKC isoform; design: key to Affinity for PKC isoform α: —: no detectable affinity; Low to very low affinity at 10X or 20X or both PRE concentrations in at least one cell line in the cell extract assay; Low affinity in purified isoform assay.; Moderate affinity at 10X or 20X or both PRE concentrations in at least one cell line in the cell extract assay.; High affinity at 10X or 20X or both PRE concentrations in at least one cell line in the cell extract assay; High affinity in purified isoform assay; conditions: for Affinity for PKC isoform α: Purified isoform
Protocol: (§1) Peptides PRE 1, 2, 3, 4, 5, 6, 7, 8, 9, 10, 11, 12 and 13 (see Table 3) were tested for their ability to interfere with binding of PKC isoform-specific antibodies to their target PKC isoforms using a competitive binding assay and purified PKC isoforms.
(§2) Procedure: Competitive binding was assessed using a 96 well plate ELISA-based assay as described below.
(§3) Greiner 96 well ELISA plates were coated with the appropriate PKC isoform diluted in PBSN (PBS with Calcium/Magnesium+0.05% Sodium azide w/w). 50 μL/well at 250 ng/mL was used. Control wells contained PBSN only. Plates were incubated overnight at 4° C.
(§4) The plates were washed 3 times with 200 μL of dH2O per well, then 100 μL of blocking solution was added per well and the plate incubated for 1 h at 37° C. The washing steps with dH2O were repeated and 50 μL of the appropriate PRE solution (PRE stock solution [20 mM in DMSO] diluted in PBSN) was added and the plate incubated for 1 h at room temperature.
(§5) After incubation, 5 μL of 1.1:400 anti-PKC (isoform specific antibody) was added per well (to provide a final concentration of 1:4000). For PKC-epsilon, 1.1:800 dilution was used and for PKC-zeta a 1.1:100 dilution was used due to high and low binding affinity, respectively. The plates were then incubated 1 h at room temperature, followed by washing with dH2O as described above.
(§6) 50 μL of 1:1000 dilution of Alkaline Phosphatase (AP) conjugated antibody (anti-rabbit for all except zeta, which was anti-goat) was then added and the plate incubated for 1 h at room temperature. Washing with dH2O was then repeated. Finally, 100 μL of pNPP solution in pNPP buffer (2 mM MgCl2, 100 mM Sodium bicarbonate in water, pH 9.8) was added to all wells and incubated for 8 minutes for α, βI, βII ε, and ζ, or for 15-20 mins for δ (until sufficient coloration is observed). The reaction was stopped by addition of Stop solution (2N NaOH) and the absorbance at 405 nm was read on a Galaxy Plate reader.
(§7) Controls were PKC without PRE; blank controls, and controls containing the final concentrations of DMSO used for solubilizing the PREs. The non-specific binding capacity related to DMSO was also measured.
(§8) The antibodies used were as follows: anti-PKC α (Cat. No. SC-208); anti-PKC βI (Cat. No. SC-209); anti-PKC βII (Cat. No. SC-210); anti-PKC δ (Cat. No. SC-213); anti-PKC ε (Cat. No. SC-214); anti-PKC ζ (Cat. No. SC-216-G) (all from Santa Cruz Biotechnology, Inc.). The AP-conjugated antibodies were obtained from Jackson Immuno Research Laboratories (West Grove, Pa.).
(§9) Calculations: The OD values measured at 405 nm represent the free PKC coated per well.
(§10) OD405 PKC alone−Blank OD405 of each sample=OD405 coated isoform
(§11) (OD405 of sample X/OD405 coated isoform)×100=% n that represents the percentage of X binding compared to control.
(§12) 100-% n measures the relative binding capacity of X towards the tested isoform.
(§13) The apparent binding capacity of the DMSO samples was then subtracted from X binding capacity.
(§14) All measurements were made in triplicate and the values in the table represent the averaged calculated binding capacity values after subtraction of the DMSO apparent binding capacity (averaged from 12 values, respectively 10.80, 11.20 and 16.40 corresponding to the concentrations of DMSO used to dilute the […] at 200, 100 and 50 μM respectively). The results allow for quantitative comparison of the binding capacity of each PRE towards an individual isoform within each table, but not among isoforms due to differences in sensitivity of the specific antibodies toward the secondary antibody. This applies particularly to PKC-delta. As noted above, the colour development duration was increased 2-3 times and, as a result, the OD405 measurements may be overestimated for this isoform.

PKC-βI = PKC-βI (Homo sapiens, UniProt P05771); assay: as above; design: key to Affinity for PKC isoform βI: —: no detectable affinity; Low to very low affinity at 10X or 20X or both PRE concentrations in at least one cell line in the cell extract assay; Low affinity in purified isoform assay.; Moderate affinity at 10X or 20X or both PRE concentrations in at least one cell line in the cell extract assay.; High affinity at 10X or 20X or both PRE concentrations in at least one cell line in the cell extract assay; High affinity in purified isoform assay; conditions: for Affinity for PKC isoform βI: Purified isoform
Protocol: as §1, §2, §3, §4, §5, §6, §7, §8, §9, §10, §11, §12, §13, §14

PKC-βII = PKC-βII (Homo sapiens, UniProt P05771); assay: as above; design: key to Affinity for PKC isoform βII: —: no detectable affinity; Low to very low affinity at 10X or 20X or both PRE concentrations in at least one cell line in the cell extract assay; Low affinity in purified isoform assay.; Moderate affinity at 10X or 20X or both PRE concentrations in at least one cell line in the cell extract assay.; High affinity at 10X or 20X or both PRE concentrations in at least one cell line in the cell extract assay; High affinity in purified isoform assay; conditions: for Affinity for PKC isoform βII: Purified isoform; for inhibition at 50 µM: PRE 50 μM; for inhibition at 100 µM: PRE 100 μM
Protocol: as §1, §2, §3, §4, §5, §6, §7, §8, §9, §10, §11, §12, §13, §14

PKC-α [2] = target: T1, PKC-α; assay: Competitive binding assay using cell extracts (Western blot); design: endogenous PKC-α in (A) untreated human neuroblastoma (IMR-32) cells; endogenous in cells; host or cells: IMR-32 human neuroblastoma cells; key: —: no detectable affinity; Low to very low affinity at 10X or 20X or both PRE concentrations in at least one cell line in the cell extract assay; Low affinity in purified isoform assay.; Moderate affinity at 10X or 20X or both PRE concentrations in at least one cell line in the cell extract assay.; High affinity at 10X or 20X or both PRE concentrations in at least one cell line in the cell extract assay; High affinity in purified isoform assay; conditions: Cell extract; PRE 10X or 20X antibody concentration
[3] = purified PKC-βII, read-out: calculated binding capacity (100-% n, DMSO apparent binding subtracted)

Sequence of PKC-βII (P05771 1-673 isoform P05771-2): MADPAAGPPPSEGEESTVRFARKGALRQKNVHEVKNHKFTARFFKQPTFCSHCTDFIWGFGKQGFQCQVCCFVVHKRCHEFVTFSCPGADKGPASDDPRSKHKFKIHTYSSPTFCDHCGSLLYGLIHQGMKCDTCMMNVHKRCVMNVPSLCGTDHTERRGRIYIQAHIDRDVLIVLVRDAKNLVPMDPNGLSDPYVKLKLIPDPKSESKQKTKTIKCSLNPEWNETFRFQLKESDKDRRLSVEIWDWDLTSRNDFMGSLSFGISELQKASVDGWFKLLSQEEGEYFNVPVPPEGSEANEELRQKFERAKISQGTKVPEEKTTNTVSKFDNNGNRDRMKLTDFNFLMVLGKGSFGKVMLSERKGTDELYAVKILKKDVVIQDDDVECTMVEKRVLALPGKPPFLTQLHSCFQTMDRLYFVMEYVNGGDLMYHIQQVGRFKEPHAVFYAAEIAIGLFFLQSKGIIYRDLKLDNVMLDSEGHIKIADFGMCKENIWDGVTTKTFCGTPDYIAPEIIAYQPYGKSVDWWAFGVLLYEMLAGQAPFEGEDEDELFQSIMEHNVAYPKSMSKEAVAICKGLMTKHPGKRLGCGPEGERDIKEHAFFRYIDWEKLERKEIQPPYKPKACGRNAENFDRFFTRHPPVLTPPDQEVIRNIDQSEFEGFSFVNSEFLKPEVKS
Sequence of PKC-βI (P05771 whole entry, canonical isoform): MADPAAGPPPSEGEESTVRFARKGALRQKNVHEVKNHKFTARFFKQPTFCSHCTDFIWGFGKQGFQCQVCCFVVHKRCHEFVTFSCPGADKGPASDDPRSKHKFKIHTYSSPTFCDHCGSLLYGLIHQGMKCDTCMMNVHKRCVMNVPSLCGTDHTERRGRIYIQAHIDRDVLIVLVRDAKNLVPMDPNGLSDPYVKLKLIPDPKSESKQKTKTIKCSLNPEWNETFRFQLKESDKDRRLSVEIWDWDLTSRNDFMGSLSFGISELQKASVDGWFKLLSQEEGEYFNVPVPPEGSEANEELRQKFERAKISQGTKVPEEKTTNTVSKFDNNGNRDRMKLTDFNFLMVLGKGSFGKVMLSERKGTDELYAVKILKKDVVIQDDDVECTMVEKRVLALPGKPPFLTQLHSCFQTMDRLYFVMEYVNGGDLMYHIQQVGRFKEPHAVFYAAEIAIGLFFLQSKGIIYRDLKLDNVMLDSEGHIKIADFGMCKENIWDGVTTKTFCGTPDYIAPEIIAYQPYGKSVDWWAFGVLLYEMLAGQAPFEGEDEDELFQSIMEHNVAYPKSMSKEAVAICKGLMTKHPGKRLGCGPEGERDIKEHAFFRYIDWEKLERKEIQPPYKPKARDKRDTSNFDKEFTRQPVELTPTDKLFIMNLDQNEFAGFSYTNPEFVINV

## CC[C@H](C)[C@H](NC(=O)[C@H](CO)NC(=O)[C@@H](NC(=O)CNC(=O)[C@@H](NC(=O)[C@H](CC(C)C)NC(=O)[C@H](CC(N)=O)NC(=O)[C@H](CCC(N)=O)NC(=O)[C@H](C)NC(=O)[C@H](CC(=O)O)NC(=O)[C@H](CCCCN)NC(C)=O)[C@@H](C)CC)[C@@H](C)CC)C(N)=O [PRE 4, Ac-KDAQNLIGISI-NH2] (Ac-KDAQNLIGISI-NH2)
PKC-α [1]
  Affinity for PKC isoform α: H
PKC-βI
  Affinity for PKC isoform βI: L
PKC-βII
  Affinity for PKC isoform βII: L
PKC-α [2]
  Affinity for PKC isoform α: H

## CC[C@H](C)[C@H](NC(=O)[C@H](CO)NC(=O)[C@@H](NC(=O)CNC(=O)[C@@H](NC(=O)[C@H](CC(C)C)NC(=O)[C@H](CC(N)=O)NC(=O)[C@H](CCC(N)=O)NC(=O)[C@H](C)NC(=O)[C@H](CC(=O)O)NC(=O)[C@H](CCCCN)NC(=O)CNC(=O)CNC(=O)[C@H](CCCCN)NC(=O)[C@@H](NC(=O)[C@H](CCC(=O)O)NC(=O)[C@H](CCC(N)=O)NC(=O)[C@@H](NC(=O)CNC(=O)[C@H](CCCCN)NC(=O)[C@H](C)NC(C)=O)[C@@H](C)CC)C(C)C)[C@@H](C)CC)[C@@H](C)CC)C(N)=O [PRE 5] (Ac-AKGIQEVKGGKDAQNLIGISI-NH2)
PKC-α [1]; PRE 50 μM, purified PKC-α, read-out: calculated binding capacity (100-% n, DMSO apparent binding subtracted)
  inhibition at 50 µM: 0%
PKC-α [1]; PRE 100 μM, purified PKC-α, read-out: calculated binding capacity (100-% n, DMSO apparent binding subtracted)
  inhibition at 100 µM: 0%
PKC-α [1]; PRE 200 μM, purified PKC-α, read-out: calculated binding capacity (100-% n, DMSO apparent binding subtracted)
  inhibition at 200 µM: 0%
PKC-α [1]
  Affinity for PKC isoform α: —
PKC-βI; PRE 50 μM, purified PKC-βI, read-out: calculated binding capacity (100-% n, DMSO apparent binding subtracted)
  inhibition at 50 µM: 0%
PKC-βI; PRE 100 μM, purified PKC-βI, read-out: calculated binding capacity (100-% n, DMSO apparent binding subtracted)
  inhibition at 100 µM: 0%
PKC-βI; PRE 200 μM, purified PKC-βI, read-out: calculated binding capacity (100-% n, DMSO apparent binding subtracted)
  inhibition at 200 µM: 0%
PKC-βI
  Affinity for PKC isoform βI: —
PKC-βII; [3]
  inhibition at 50 µM: 0%
  inhibition at 100 µM: 0%
PKC-βII; PRE 200 μM, purified PKC-βII, read-out: calculated binding capacity (100-% n, DMSO apparent binding subtracted)
  inhibition at 200 µM: 0%
PKC-βII
  Affinity for PKC isoform βII: —
PKC-α [2]
  Affinity for PKC isoform α: M

## Ac-RDAQNLIGISI-NH2 [PRE 11]
PKC-α [1]
  Affinity for PKC isoform α: L
PKC-βI
  Affinity for PKC isoform βI: —
PKC-βII
  Affinity for PKC isoform βII: —
PKC-α [2]
  Affinity for PKC isoform α: H/L

## Ac-ISIGILNQADK-NH2 [PRE 10]
PKC-α [1]
  Affinity for PKC isoform α: —
PKC-βI
  Affinity for PKC isoform βI: —
PKC-βII
  Affinity for PKC isoform βII: L
PKC-α [2]
  Affinity for PKC isoform α: H/L

## CC[C@H](C)[C@H](NC(=O)[C@H](CO)NC(=O)[C@@H](NC(=O)CNC(=O)[C@@H](NC(=O)[C@H](CC(C)C)NC(=O)[C@H](CC(N)=O)NC(=O)[C@H](CCC(N)=O)NC(=O)[C@H](C)NC(=O)[C@H](CC(=O)O)NC(=O)CNC(=O)CNC(=O)[C@H](CCCCN)NC(=O)[C@@H](NC(=O)[C@H](CCC(=O)O)NC(=O)[C@H](CCC(N)=O)NC(=O)[C@@H](NC(=O)CNC(=O)[C@H](CCCCN)NC(=O)[C@H](C)NC(C)=O)[C@@H](C)CC)C(C)C)[C@@H](C)CC)[C@@H](C)CC)C(N)=O [PRE 3] (Ac-AKGIQEVKGGDAQNLIGISI-NH2)
PKC-α [1]
  Affinity for PKC isoform α: H
PKC-βI
  Affinity for PKC isoform βI: H
PKC-βII; [3]
  inhibition at 50 µM: 0%
  inhibition at 100 µM: 0%
PKC-βII
  Affinity for PKC isoform βII: —
PKC-α [2]
  Affinity for PKC isoform α: H

## Ac-KDAQNLI-NH2 [PRE 12]
PKC-α [1]
  Affinity for PKC isoform α: —
PKC-βI
  Affinity for PKC isoform βI: —
PKC-βII
  Affinity for PKC isoform βII: —
PKC-α [2]
  Affinity for PKC isoform α: —

## RRKKGGKDFVVKR [PRE 1]
PKC-α [1]
  Affinity for PKC isoform α: —
PKC-βI
  Affinity for PKC isoform βI: H
PKC-βII
  Affinity for PKC isoform βII: —
PKC-α [2]
  Affinity for PKC isoform α: H

## Ac-ISIGILQNADK-NH2 (not fully specified; printed as Ac-ISIGILQNADK-NH2) [PRE 7]
PKC-α [1]
  Affinity for PKC isoform α: L
PKC-βI; PRE 50 μM, purified PKC-βI
  calculated binding capacity (100-% n, DMSO apparent binding subtracted): 2.10%
PKC-βI
  Affinity for PKC isoform βI: —
PKC-βII
  Affinity for PKC isoform βII: —
PKC-α [2]
  Affinity for PKC isoform α: L
